The results in this text go back to ChEMBL document CHEMBL1145498, “A systematic interaction map of validated kinase inhibitors with Ser/Thr kinases” (Proc Natl Acad Sci U S A, 2007).

Molecules are shown by their SMILES.

For assay [1], the target named is Cyclin-dependent kinase-like 1 (Homo sapiens) (UniProt Q00532).
Assay [2] deals with T1, Calcium/calmodulin-dependent protein kinase kinase 2 (Homo sapiens, UniProt Q96RR4).
Target sequence in this assay (Q96RR4 2-588 limits assumed): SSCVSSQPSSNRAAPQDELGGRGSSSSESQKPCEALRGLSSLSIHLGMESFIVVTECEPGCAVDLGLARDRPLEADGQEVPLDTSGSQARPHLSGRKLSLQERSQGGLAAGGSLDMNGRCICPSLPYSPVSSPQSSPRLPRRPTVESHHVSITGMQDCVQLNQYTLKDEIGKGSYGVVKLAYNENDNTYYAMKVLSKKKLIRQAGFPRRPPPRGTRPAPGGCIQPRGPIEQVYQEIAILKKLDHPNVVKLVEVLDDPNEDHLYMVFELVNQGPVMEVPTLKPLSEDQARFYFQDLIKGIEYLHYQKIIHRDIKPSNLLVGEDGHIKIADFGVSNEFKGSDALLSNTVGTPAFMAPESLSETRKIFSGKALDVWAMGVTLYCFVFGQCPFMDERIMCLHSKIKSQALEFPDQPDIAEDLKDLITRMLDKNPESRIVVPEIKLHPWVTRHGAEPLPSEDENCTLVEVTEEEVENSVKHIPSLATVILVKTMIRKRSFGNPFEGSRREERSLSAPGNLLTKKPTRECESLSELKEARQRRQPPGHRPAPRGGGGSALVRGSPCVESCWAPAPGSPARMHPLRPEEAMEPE
Assay [3] concerns the target Calcium/calmodulin-dependent protein kinase type II subunit gamma (Homo sapiens) (UniProt Q13555).
Assay [4] has as its target Serine/threonine-protein kinase PAK 6 (Homo sapiens) (UniProt Q9NQU5).
Assay [5] deals with Ribosomal protein S6 kinase alpha-3 (Homo sapiens) (UniProt P51812).
Sequence of Ribosomal protein S6 kinase alpha-3 (Homo sapiens) (P51812 whole entry): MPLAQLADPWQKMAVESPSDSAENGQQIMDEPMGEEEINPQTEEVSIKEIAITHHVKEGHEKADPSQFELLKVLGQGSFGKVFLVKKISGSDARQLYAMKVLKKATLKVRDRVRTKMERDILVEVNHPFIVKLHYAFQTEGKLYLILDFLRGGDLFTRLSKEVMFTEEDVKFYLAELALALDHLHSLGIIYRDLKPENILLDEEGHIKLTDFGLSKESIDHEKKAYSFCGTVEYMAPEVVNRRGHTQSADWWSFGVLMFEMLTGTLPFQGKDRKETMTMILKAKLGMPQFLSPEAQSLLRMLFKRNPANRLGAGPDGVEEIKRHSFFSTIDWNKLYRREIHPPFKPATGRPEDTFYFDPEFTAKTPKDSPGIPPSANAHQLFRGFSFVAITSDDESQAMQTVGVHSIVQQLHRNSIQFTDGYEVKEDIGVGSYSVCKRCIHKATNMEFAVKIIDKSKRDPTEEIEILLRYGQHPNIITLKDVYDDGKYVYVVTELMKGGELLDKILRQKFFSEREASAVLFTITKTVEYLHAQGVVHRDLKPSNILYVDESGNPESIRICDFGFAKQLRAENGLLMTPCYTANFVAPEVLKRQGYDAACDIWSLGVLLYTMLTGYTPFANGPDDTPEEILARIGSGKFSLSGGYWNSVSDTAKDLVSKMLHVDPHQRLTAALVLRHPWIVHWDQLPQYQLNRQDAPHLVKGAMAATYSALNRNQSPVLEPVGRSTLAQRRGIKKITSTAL
For assay [6], the target named is Serine/threonine-protein kinase 25 (Homo sapiens) (UniProt O00506).
Sequence of Serine/threonine-protein kinase 25 (Homo sapiens) (O00506 whole entry, looked up): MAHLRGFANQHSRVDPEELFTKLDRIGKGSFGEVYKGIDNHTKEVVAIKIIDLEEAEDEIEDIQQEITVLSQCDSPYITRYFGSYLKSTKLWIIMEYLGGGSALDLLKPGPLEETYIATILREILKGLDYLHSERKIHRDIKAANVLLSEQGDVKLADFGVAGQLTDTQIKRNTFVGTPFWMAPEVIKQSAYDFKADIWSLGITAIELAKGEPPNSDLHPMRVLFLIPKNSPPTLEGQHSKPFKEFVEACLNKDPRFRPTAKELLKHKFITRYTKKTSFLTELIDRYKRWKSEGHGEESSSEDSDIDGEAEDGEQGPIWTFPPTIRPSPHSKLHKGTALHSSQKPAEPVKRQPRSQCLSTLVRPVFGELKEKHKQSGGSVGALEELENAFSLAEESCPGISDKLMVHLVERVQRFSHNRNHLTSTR
Assay [7] deals with T2, Serine/threonine-protein kinase VRK1 (Homo sapiens) (UniProt Q99986).
T2 sequence (whole entry): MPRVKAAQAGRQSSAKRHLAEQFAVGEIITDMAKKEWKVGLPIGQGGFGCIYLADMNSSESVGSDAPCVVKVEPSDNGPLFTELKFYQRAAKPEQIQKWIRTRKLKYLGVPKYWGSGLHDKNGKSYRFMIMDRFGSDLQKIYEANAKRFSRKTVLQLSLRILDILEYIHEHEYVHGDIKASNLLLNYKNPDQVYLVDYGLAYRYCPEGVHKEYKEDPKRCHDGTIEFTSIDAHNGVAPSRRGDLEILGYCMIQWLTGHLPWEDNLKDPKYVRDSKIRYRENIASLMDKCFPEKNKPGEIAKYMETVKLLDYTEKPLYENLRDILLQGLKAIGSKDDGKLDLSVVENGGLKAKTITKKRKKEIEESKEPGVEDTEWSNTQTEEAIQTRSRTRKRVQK

Assay [8] deals with T3, Calcium/calmodulin-dependent protein kinase type IV (Homo sapiens) (UniProt Q16566).
T3 sequence (whole entry): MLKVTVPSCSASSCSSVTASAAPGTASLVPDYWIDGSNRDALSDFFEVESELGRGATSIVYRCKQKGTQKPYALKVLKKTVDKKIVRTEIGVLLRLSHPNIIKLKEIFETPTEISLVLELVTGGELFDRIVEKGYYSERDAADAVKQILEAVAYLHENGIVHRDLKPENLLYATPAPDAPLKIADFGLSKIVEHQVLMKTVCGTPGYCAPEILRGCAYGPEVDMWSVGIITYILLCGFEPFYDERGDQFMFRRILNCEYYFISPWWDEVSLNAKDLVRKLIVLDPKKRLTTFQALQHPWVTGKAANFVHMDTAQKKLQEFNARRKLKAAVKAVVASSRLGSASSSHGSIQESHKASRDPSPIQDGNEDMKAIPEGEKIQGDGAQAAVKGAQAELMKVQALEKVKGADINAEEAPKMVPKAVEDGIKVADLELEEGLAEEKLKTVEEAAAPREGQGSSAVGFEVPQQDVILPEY

The target of assay [9] is T4, Serine/threonine-protein kinase VRK3 (Homo sapiens) (UniProt Q8IV63).
T4 sequence (whole entry): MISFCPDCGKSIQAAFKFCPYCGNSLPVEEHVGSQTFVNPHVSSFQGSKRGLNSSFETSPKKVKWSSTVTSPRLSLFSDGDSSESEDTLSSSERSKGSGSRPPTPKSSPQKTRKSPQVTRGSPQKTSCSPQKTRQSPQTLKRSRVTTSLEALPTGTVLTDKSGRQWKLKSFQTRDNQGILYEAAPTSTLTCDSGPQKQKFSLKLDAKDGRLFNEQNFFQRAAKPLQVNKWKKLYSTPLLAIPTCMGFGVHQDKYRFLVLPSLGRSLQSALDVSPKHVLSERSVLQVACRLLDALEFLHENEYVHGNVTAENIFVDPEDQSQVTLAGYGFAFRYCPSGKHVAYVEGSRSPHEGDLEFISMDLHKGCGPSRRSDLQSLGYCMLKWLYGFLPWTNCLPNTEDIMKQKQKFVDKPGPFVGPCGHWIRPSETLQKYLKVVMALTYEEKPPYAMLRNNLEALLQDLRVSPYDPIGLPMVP

The target of assay [10] is 5'-AMP-activated protein kinase catalytic subunit alpha-2 (Homo sapiens) (UniProt P54646).
Sequence of 5'-AMP-activated protein kinase catalytic subunit alpha-2 (Homo sapiens) (P54646 whole entry, looked up): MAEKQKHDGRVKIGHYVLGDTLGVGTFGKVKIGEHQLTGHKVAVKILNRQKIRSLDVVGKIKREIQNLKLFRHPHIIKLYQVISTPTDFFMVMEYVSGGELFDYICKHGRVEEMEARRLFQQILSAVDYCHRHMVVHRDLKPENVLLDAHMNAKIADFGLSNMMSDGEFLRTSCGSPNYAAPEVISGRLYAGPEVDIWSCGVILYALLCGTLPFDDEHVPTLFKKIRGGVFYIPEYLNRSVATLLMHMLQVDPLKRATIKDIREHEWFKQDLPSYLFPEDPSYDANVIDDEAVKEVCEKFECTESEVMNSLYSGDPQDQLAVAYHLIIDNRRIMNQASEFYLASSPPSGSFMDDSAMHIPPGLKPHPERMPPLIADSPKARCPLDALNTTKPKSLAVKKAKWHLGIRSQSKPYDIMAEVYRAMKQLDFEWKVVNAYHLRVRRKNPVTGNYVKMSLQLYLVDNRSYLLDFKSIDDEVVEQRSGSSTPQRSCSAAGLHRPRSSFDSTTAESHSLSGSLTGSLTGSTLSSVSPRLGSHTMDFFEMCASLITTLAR
In assay [11] the target is Serine/threonine-protein kinase 38 (Homo sapiens) (UniProt Q15208).
Sequence of Serine/threonine-protein kinase 38 (Homo sapiens) (Q15208 2-465 limits assumed): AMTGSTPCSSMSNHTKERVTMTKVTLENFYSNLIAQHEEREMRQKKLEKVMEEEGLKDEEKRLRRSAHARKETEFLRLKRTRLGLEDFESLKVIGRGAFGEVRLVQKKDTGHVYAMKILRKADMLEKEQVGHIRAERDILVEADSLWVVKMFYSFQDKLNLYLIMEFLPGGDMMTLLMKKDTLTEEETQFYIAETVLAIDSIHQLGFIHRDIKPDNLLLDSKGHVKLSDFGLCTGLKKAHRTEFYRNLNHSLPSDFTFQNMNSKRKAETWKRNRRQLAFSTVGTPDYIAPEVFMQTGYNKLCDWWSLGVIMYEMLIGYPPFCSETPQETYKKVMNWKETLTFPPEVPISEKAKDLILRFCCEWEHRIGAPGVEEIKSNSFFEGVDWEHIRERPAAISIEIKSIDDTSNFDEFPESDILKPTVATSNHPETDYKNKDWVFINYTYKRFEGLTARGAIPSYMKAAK
Assay [12] has as its target Cyclin-dependent kinase 2 (Homo sapiens, UniProt P24941).
Assay [13] has as its system KB. The assay can be described thus: cells. To be noted: Homo sapiens.
Assay [14] concerns KB. Nature of the assay: cells. To be noted: Homo sapiens. The source holds these as a separate data set.
Assay [15] in a line: Binding affinity at PKC.
Assay [16] addresses Myosin light chain kinase, smooth muscle (Homo sapiens, UniProt Q15746). The assay can be described thus: Binding affinity at MLCK.
The target in assay [17] is T1, Calcium/calmodulin-dependent protein kinase kinase 2. The assay can be described thus: Inhibition of CaM-KKbeta.
Target sequence in this assay (Q96RR4 whole entry): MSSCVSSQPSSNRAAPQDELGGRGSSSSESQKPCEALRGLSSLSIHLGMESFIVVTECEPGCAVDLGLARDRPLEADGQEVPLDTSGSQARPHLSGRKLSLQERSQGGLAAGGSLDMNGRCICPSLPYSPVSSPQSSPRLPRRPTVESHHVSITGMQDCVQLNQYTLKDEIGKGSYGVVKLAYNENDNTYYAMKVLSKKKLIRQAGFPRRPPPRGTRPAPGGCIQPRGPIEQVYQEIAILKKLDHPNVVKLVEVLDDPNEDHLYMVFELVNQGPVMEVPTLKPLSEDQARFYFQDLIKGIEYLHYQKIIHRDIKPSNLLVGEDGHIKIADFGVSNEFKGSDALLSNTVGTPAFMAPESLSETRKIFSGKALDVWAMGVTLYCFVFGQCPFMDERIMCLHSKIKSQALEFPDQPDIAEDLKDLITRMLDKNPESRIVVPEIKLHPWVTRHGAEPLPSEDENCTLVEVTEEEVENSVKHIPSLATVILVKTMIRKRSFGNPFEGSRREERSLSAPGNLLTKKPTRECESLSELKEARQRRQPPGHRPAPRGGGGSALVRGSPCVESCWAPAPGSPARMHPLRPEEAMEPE
The nature of assay [18]: Inhibition of Cdk2/cyclin B.
The target in another assay is TGF-beta receptor type-1 (Homo sapiens, UniProt P36897).
The target of assay [19] is Epidermal growth factor receptor (Homo sapiens, UniProt P00533).
Assay [20] in a line: Binding affinity at PKA.
Another assay deals with NT2. Nature of the assay: Inhibition of lysophosphatidic acid-induced MARCKS phosphorylation in human NT2 cells. The class given is functional, cell-based.
A short description of assay [21]: Binding affinity at ROCK.
Assay [22] concerns the target Vascular endothelial growth factor receptor 2 (Homo sapiens, UniProt P35968).

Sequence of Serine/threonine-protein kinase PAK 6 (Homo sapiens) (Q9NQU5 whole entry, looked up): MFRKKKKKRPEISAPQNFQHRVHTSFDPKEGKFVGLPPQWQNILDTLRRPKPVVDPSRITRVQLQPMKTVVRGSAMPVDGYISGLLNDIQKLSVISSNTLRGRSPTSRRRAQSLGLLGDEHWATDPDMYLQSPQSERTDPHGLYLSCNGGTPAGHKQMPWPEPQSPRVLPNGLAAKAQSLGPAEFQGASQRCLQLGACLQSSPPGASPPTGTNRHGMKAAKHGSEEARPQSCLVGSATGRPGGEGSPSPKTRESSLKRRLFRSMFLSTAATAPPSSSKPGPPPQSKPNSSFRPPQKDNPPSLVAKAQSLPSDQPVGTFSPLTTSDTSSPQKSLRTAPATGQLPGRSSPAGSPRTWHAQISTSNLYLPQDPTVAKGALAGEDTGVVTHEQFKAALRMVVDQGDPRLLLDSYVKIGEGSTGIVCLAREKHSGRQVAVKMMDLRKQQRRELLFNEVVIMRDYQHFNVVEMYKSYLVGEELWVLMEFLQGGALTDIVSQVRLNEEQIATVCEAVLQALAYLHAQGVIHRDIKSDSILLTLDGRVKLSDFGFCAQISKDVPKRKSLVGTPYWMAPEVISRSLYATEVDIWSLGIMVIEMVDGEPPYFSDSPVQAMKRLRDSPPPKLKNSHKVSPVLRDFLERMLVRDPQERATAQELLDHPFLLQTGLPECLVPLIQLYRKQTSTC
Sequence of Calcium/calmodulin-dependent protein kinase type II subunit gamma (Homo sapiens) (Q13555 whole entry): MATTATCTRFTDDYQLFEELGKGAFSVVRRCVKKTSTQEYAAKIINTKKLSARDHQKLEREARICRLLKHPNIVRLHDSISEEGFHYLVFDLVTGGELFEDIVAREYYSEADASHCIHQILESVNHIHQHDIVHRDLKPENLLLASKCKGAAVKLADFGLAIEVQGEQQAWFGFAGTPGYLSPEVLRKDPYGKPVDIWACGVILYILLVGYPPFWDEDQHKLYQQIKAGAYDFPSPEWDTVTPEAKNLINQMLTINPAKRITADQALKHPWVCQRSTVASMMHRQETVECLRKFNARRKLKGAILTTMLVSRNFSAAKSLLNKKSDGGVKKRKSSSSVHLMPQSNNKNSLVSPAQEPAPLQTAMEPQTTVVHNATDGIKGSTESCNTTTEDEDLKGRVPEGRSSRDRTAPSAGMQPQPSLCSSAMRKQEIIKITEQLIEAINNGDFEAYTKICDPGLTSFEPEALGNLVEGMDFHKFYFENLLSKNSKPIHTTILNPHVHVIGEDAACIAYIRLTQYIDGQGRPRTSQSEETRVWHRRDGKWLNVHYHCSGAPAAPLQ
Sequence of Cyclin-dependent kinase-like 1 (Homo sapiens) (Q00532 whole entry): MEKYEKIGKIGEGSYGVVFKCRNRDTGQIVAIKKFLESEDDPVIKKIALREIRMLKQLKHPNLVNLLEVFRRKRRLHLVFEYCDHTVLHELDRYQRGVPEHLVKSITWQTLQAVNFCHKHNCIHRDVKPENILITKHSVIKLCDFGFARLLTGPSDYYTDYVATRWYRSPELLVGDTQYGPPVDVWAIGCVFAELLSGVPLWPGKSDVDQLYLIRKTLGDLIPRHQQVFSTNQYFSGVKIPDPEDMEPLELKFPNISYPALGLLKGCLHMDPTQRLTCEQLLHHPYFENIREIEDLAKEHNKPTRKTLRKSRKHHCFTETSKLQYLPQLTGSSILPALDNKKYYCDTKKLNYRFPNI

Consider `CC(C)n1cnc2c(NCc3ccccc3O)nc(NCCCO)nc21`, for which the ΔTm is 0.1 °C in [1]; 0.2 °C in assay [2]; 0.1 °C in assay [3]; 0.3 °C in assay [4]; 0.9 °C in [5]; 0.3 °C in assay [6]. In addition, the ΔTm came out at 0 °C in assay [7]; 0.1 °C in assay [8]; 0.1 °C in assay [9]; 0.2 °C in assay [10]; 0.3 °C in [11]. In assay [12], this compound registered an IC50 of 80 nM.

As for `CN1CCC(Nc2ncc3ncnc(Nc4ccc(F)c(Cl)c4)c3n2)CC1` [FALNIDAMOL], the ΔTm in assay [1] is 3.2 °C; in assay [2], -0.1 °C; in assay [3] it was 1.4 °C; in assay [4] it was 2.9 °C; in assay [8], 0.1 °C; in [10] it was 0.1 °C. The IC50 was 1.82 nM with KB [13] and 3200 nM with KB [14].

On to `O=S(=O)(NCCNC/C=C/c1ccc(Br)cc1)c1cccc2cnccc12`, for which the ΔTm is -0.1 °C in assay [1]; -0.1 °C in assay [2]; 0 °C in [3]; 1.5 °C in [4]; 2.2 °C in assay [5]; 1 °C in assay [6]. Also, the ΔTm is -0.3 °C in assay [7]; 0.4 °C in assay [8]; 0.2 °C in assay [9]; 0.9 °C in assay [10]; 1.7 °C in [11]. Besides, the Ki in assay [15] is 31700 nM; in assay [16], 28300 nM; in [17], 29700 nM.

Take `NC1=NC(=O)/C(=C2\CCNC(=O)c3[nH]c(Br)cc32)N1` [HYMENIALDISINE]: the thermal shift (ΔTm) in assay [1] worked out at 0.6 °C; in assay [2] it was 3.4 °C; in assay [3], 0.2 °C; in assay [4], 1.2 °C; in assay [5], 4.2 °C; in assay [6], 3.5 °C. The ΔTm was found to be 2 °C in assay [7]; 0.1 °C in assay [8]; 0.3 °C in [9]; 1 °C in assay [10]; 1 °C in assay [11]. Also, it took 40 nM to reach half-maximal inhibition in assay [18] (IC50).

For the compound `NC(=O)c1ccc(-c2nc(-c3ccc4c(c3)OCCO4)c(-c3ccccn3)[nH]2)cc1`, the ΔTm in assay [1] is -0.3 °C; in [2] it was -1.1 °C; in assay [3], 0.3 °C; in [4] it was 0 °C; in [5], -0.1 °C; in [6], 0 °C. Also, the ΔTm in assay [7] was 0.7 °C; in assay [8], -0.9 °C; in assay [9], 0.3 °C; in [10] it was -0.7 °C; in [11], 0.5 °C. Moreover, half-maximal inhibition at TGF-beta receptor type-1 (IC50) was put at 500 nM.

For `O=C(O)/C=C/c1cc(CO)ccc1CO`, the ΔTm in assay [1] is -0.1 °C; in [2] it was 0.1 °C; in assay [3], 0.1 °C; in assay [4], -0.4 °C; in assay [5], 0.3 °C; in [6], 0.5 °C. Besides, the ΔTm was determined as 0.4 °C in [7]; 0.5 °C in assay [8]; 0.2 °C in [9]; 0.7 °C in [10]; 0.1 °C in assay [11]. Also, the IC50 in assay [19] came out at 780 nM.

For `Cc1cncc2cccc(S(=O)(=O)N3CCCNC[C@@H]3C)c12`, the ΔTm is 0.1 °C in assay [1]; -0.1 °C in assay [2]; 2.9 °C in assay [3]; 0.7 °C in assay [4]; 2.4 °C in assay [5]; 1.1 °C in assay [6]. Besides, the ΔTm in assay [7] worked out at 0.6 °C; in assay [8], 0.3 °C; in [9] it was 0.4 °C; in assay [10] it was 1.7 °C; in assay [11] it was 0.6 °C. The Ki in assay [15] came out at 9270 nM; in assay [20] it was 630 nM; in assay [16] it was 10100 nM; in [21], 1.6 nM. The same compound had an IC50 with NT2 of 2500 nM.

On to `CC(C)c1cc(/C=C(\C#N)C(=O)NCCCc2ccccc2)cc(C(C)C)c1O`, for which the ΔTm was found to be 1.2 °C in assay [1]; 1 °C in [2]; 0.5 °C in assay [3]; 0.1 °C in [4]; 1 °C in [5]; 0.7 °C in [6]. The ΔTm in [7] is 1 °C; in [8], 1.2 °C; in [9], 0.8 °C; in [10] it was -0.8 °C; in assay [11] it was 0.7 °C. The compound further returned an IC50 in assay [22] of 700 nM.

Usually ΔTm stands for the shift of the melting midpoint relative to a reference. For orientation: IC50 means the concentration needed to halve the response being measured. Lower therefore signals greater potency. In general, Ki refers to the dissociation constant of the complex between target and ligand, obtained from inhibition or displacement.
